Results from patent US11040052B2, “Methods and pharmaceutical compositions for modulating autophagy in a subject in need thereof” (INSERM (INSTITUT NATIONAL DE LA SANTE ET DE LA RECHERCHE …, priority 2013, dated 2021).
Entries after “also recorded” stand apart in the source; their conditions may differ.

How the values were obtained:
AMPK, mTORC1 = test: Immunoblot of AMPK phosphorylation and mTORC1 activity (p70s6k phosphorylation); format: cell-based, human; conditions: nutrient-depleted (starved) cells in vitro
Procedure: For immunoblotting, 25 μg of proteins were then separated on 4-12% Bis-Tris acrylamide (Invitrogen) or 12% Tris-Glycine SDS-PAGE precast gels (Biorad, Hercules, USA) and electrotransferred to ImmobilonTM membranes (Millipore Corporation, Billerica, USA). Membranes were then sliced in different parts according to the molecular weight of the protein of interest to allow simultaneous detection of different antigens within the same experiment. […] Development was performed with appropriate horseradish peroxidase (HRP)-labeled secondary antibodies (Southern Biotech, Birmingham, USA) plus the SuperSignal West Pico chemoluminescent substrate (Thermo Scientific-Pierce). An anti-glyceraldehyde-3-phosphate dehydrogenase antibody (Chemicon International, Temecula, USA) was used to control equal loading of lanes.

[1] = tested on: MPA/DMBA induced mammary tumors; test: MPA/DMBA induced mammary tumor; format: in vivo, mice
Procedure: Six-week-old female Balb/c mice underwent surgical implantation of slow-release MPA (Medroxyprogesterone Acetate) pellets (50 mg, 90-day release; Innovative Research of America) subcutaneously on the right flank. 200 uL of 5 mg/mL DMBA (Dimethylbenzantracene)
(Sigma Aldrich) dissolved in Corn Oil was administered by oral gavage six times during 8 weeks. Tumor formation was monitored by palpation. When tumors became palpable, mice were assigned to following groups of treatment: PBS, HCA, MTX, MTX plus HCA and the MTX plus HCA upon CD4/CD8 lymphocytes depletion. Combinatorial groups were treated as previously described, whereas for CD4/CD8 depletion, mice were intraperitoneally administrated with 500 μg of anti CD4 and CD8 antibodies the day before the onset of the treatment.

[2] = tested on: starvation-induced autophagy in mice tissues; test: Starved mice: tissue AcCoA, protein acetylation and starvation-induced autophagy; format: in vivo
Procedure: C57BL/6 mice (Charles River Laboratory, […], France) were bred and maintained according to both the FELASA and the Animal Experimental Ethics Committee Guidelines (Val de Marne, France). Mice were housed in a temperature-controlled environment with 12 h light/dark cycles and received food and water ad libitum. For HC-related experiments, mice were injected intraperitoneally with a single 100 mg/kg dose and 6 h later were sacrificed and tissues were immediately frozen in liquid nitrogen. […] Tissue extracts were then centrifuged at 12,000 g at 4° C. and supernatants were collected. Protein concentration in the supernatants was evaluated by the bicinchoninic acid technique (BCA protein assay kit, Pierce Biotechnology, Rockford, Ill.). For hydroxycitrate-related weight-loss experiments, autophagy-deficient Atg4b^-/- mice were used. Atg4b^-/- mice have been previously described (Mariño et al., 2010). For HC-, spermidine-, and resveratrol-related experiments (tumour growth) mice were intraperitoneally injected with respectively 100 mg/kg, 50 mg/kg and 100 mg/kg doses at day 8 and day 9. At day 9, mice were intraperitoneally injected with 2 mg/kg single dose of Mitoxanthrone. For starvation related experiment (tumour growth) mice were treated as previously described (Fabrizio et. al., 2010). To avoid post-mortem autophagy induction, dead mice were immediately perfused with 4% paraformaldehyde (w:v in PBS, pH 7.4). Tissues were then harvested and further fixed with the same solution for at least 4 h, followed by treatment with 15% sucrose (w:v in PBS) for 4 h and with 30% sucrose (w:v in PBS) overnight. Tissue samples were embedded in Tissue-Tek OCT compound (Sakura Finetechnical Co. Ltd., Tokyo, Japan) and stored at -70° C. […] In each organ, the number of GFP-LC3 dots was counted in five independent visual fields from at least five mice using a TCS SP2 confocal fluorescence microscope (Leica Microsystems GmbH). […]

## O=C(O)CCCCC1CCSS1 (stereo not drawn) [LA, lipoic acid]
AMPK, mTORC1
  AMPK phosphorylation and mTORC1 activity in starved cells: blunted starvation-induced mTORC1 inhibition, AMPK activation

## CC(C)CC(=O)C(=O)O [KIC, ketoisocaproic acid]
AMPK, mTORC1
  AMPK phosphorylation and mTORC1 activity in starved cells: inhibition of AMPK phosphorylation and reversion of mTORC1 dephosphorylation; also recorded: prevented starvation-associated mTORC1 inhibition and AMPK activation

## O=C(O)CC(O)(C(=O)O)C(O)C(=O)O (stereo not drawn) [HC, hydroxycitrate]
[1]; Kaplan-Meier
  survival, combined with MTX: significantly increased survival
[1]; depletion of CD4 and CD8 T lymphocytes
  mammary tumor growth and survival, combined with MTX, T cell depleted: Beneficial effect of combinatorial treatment is lost
[1]; mice capable of T-cell dependent immune response
  mammary tumor growth, combined with MTX: significantly diminish tumor growth; also recorded: unless they were combined
[1]; mouse, in vivo
  mammary tumor growth, monotherapy: had little effect

## COC(=O)CCC(=O)C(=O)OC [DMKG, dimethyl-α-ketoglutarate]
[2]; intraperitoneal injection, starved mice, vs vehicle
  AcCoA levels in mice tissues after 24 h starvation: increased cardiac AcCoA levels; also recorded: avoided the depletion of AcCoA
[2]; parenteral administration
  cytoplasmic protein acetylation in tissues of starved mice: avoided the depletion of AcCoA, the deacetylation of cytosolic proteins; also recorded: avoided the depletion of AcCoA and the deacetylation of cytoplasmic proteins
[2]; starved mice, LC3 lipidation and GFP-LC3 in heart and muscle
  starvation-induced autophagy in vivo: inhibited starvation-induced autophagy in vivo; also recorded: efficiently reduced autophagy in vivo
